Experimental findings from article PMC7238241, “Lack of Correlation between In Vitro and In Vivo Studies on the Inhibitory Effects of (‒)-Sophoranone on CYP2C9 Is Attributable to Low Oral Absorption and Extensive Plasma Protein Binding of (‒)-Sophoranone” (Pharmaceutics, 2020) are described below.

The target of one series is T1, CYP2C8 (Homo sapiens, UniProt P10632).
T1 construct: tissue Corning Life Sciences; host or cells: pooled human liver microsomes, 150 donors
T1 sequence (P10632 1-490): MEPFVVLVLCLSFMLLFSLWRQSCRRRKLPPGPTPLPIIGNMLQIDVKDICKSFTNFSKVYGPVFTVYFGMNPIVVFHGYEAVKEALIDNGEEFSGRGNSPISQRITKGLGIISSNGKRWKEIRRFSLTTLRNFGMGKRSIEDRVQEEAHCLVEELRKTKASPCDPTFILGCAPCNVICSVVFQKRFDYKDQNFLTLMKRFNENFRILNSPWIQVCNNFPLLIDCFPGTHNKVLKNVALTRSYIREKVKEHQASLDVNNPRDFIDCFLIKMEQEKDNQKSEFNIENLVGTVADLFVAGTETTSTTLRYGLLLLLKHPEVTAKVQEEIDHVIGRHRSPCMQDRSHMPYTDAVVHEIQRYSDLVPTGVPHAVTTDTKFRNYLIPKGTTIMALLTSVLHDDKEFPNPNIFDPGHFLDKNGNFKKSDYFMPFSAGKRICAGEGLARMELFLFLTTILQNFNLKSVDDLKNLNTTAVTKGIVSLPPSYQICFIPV
The series can be described thus: Reversible CYP2C8 inhibition, cocktail assay (rosiglitazone p-hydroxylase) in human liver microsomes. Format: biochemical. The following applies: human liver microsomes 0.1 mg/mL, rosiglitazone probe, n = 3. The procedure: (§1) The inhibitory effects of SPN on CYP1A2, CYP2A6, CYP2B6, CYP2C8, CYP2C9, CYP2C19, CYP2D6, CYP2E1, and CYP3A4 were evaluated in pooled human liver microsomes through the use of specific CYP probe substrates (cocktail assay), as previously described with a slight modification. Concentrations of each CYP probe in Table 1 were used close to their reported Km values.
(§2) Briefly, a 90-µL incubation mixture, including pooled human liver microsomes (final concentration 0.1 mg/mL), 50 mM phosphate buffer (pH 7.4), each CYP-probe substrate cocktail set, and SPN (0–50 μM), was pre-incubated for 5 min at 37 °C. SPN was dissolved in methanol and spiked into the incubation mixture to a final concentration of 0.5% methanol. […]
(§3) The IC50 values were calculated via nonlinear least-squares regression analysis from logarithmic plots of inhibitor concentration versus percentage of activity remaining after inhibition, using SigmaPlot (ver. 14.0; Systat Software Inc, Chicago, IL, USA). The Ki values were determined from the equations for a single substrate single inhibitor model and the software available in the SigmaPlot Enzyme Kinetics module. Competitive, non-competitive, uncompetitive, or mixed inhibition models were evaluated and ranked according to the best fit based on Akaike Information Criterion (AIC) values. […]

The next series concerns the target T2, CYP2C9 (Homo sapiens, UniProt P11712).
T2 construct: tissue Corning Life Sciences; host or cells: pooled human liver microsomes, 150 donors
The series can be described thus: Reversible CYP2C9 inhibition, cocktail assay (tolbutamide 4-hydroxylase) in human liver microsomes. Format: biochemical. The following applies: human liver microsomes 0.1 mg/mL, tolbutamide probe, n = 3. The procedure: as §1, §2, §3
A general note: Liver microsomes are a subcellular fraction often used to study metabolism.

The target of the next series is T3, CYP2E1 (Homo sapiens, UniProt P05181).
T3 construct: tissue Corning Life Sciences; host or cells: pooled human liver microsomes, 150 donors
The series can be described thus: Reversible CYP2E1 inhibition, cocktail assay (chlorzoxazone 6-hydroxylase) in human liver microsomes. In kind it is biochemical. The procedure: as §1
Briefly, a 90-µL incubation mixture, including pooled human liver microsomes (final concentration 0.1 mg/mL), 50 mM phosphate buffer (pH 7.4), each CYP-probe substrate cocktail set, and SPN (0–50 μM), was pre-incubated for 5 min at 37 °C. SPN was dissolved in methanol and spiked into the incubation mixture to a final concentration of 0.5% methanol. All P450-selective substrates (except coumarin due to solubility) were dissolved in methanol and serially diluted with methanol to the required concentrations, and the organic solvent was subsequently evaporated under a gentle stream of N2 gas to minimize the effects of organic solvents on CYP activities. On the other hand, coumarin dissolved in 50 mM phosphate buffer (pH 7.4) was directly added into the mixed tube. The reaction was initiated by adding 10-µL aliquot of NADPH-generating system (1.3 mM NADP^+, 3.3 mM glucose 6-phosphate, 3.3 mM MgCl2, and 0.4 unit/mL glucose-6-phosphate dehydrogenase) before 15 min incubation at 37 °C in a shaking water bath. […]
as §3

A short description of series [1]: Unbound fraction in rat plasma (rapid equilibrium dialysis). Format: in vitro ADME. The procedure:
The plasma or liver microsomal protein bindings were performed using a rapid equilibrium dialysis device and cellulose membranes with a molecular weight cutoff of 8000 (Thermo Scientific, Rockford, IL, USA). The rat and human plasma samples (200 μL) containing SPN at 10 and 50 μM, respectively, were dialyzed against a dialysis buffer, phosphate-buffered saline (PBS, 400 μL). The loaded dialysis plate was covered with sealing tape, placed on an orbital shaker at approximately 200 rpm, and incubated at 37 °C for 4 h. Thereafter, samples (100 μL) from both PBS and plasma chambers were collected and mixed with an equal volume of blank plasma and PBS, respectively. All samples were stored at −80 °C until LC-MS/MS analysis. The unbound fraction of SPN in human (or rat) plasma was calculated by dividing the SPN concentration in PBS by that in plasma.
For orientation: Equilibrium dialysis compares concentrations on both sides of a semipermeable membrane.

For another series, the target named is T4, CYP3A4 (Homo sapiens, UniProt P08684).
T4 construct: tissue Corning Life Sciences; host or cells: pooled human liver microsomes, 150 donors
The experiment in a line: Inhibition of CYP3A4-catalyzed testosterone 6β-hydroxylation. In kind it is biochemical. Conditions: data not shown. The text has this: The reversible inhibition of SPN-mediated CYP3A4 activity was less consistent with the published literature. […] They only focused on the in vitro inhibitory potentials of several flavonoids against CYP3A4 activity. To the best of our knowledge, to date, bufalin has not been used as the in vitro probe substrate for the CYP3A4 activity, and the reference material of 5′-hydroxybufalin is not commercially available. Because of the presence of several binding regions within the CYP3A4 active site, multiple probe substrates are often used for in vitro CYP3A4-mediated drug–drug interaction studies, including midazolam, nifedipine, and testosterone. […] Altogether, the in vitro CYP3A4 inhibition by SPN seemed to be substrate-specific.

T3 sequence (P05181 whole entry): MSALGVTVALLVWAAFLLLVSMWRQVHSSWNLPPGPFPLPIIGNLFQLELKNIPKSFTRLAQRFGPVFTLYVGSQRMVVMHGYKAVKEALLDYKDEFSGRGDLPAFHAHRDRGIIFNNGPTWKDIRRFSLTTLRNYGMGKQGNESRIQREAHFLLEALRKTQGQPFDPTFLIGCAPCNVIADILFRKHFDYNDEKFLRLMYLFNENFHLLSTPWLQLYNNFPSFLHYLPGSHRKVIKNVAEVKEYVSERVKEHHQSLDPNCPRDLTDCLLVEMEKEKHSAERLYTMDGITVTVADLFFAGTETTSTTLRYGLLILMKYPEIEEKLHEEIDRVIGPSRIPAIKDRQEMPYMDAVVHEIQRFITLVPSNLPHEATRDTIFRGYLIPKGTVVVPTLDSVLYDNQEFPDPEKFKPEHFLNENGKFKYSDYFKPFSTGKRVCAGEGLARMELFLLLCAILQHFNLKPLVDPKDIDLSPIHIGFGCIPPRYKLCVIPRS
T4 sequence (P08684 whole entry): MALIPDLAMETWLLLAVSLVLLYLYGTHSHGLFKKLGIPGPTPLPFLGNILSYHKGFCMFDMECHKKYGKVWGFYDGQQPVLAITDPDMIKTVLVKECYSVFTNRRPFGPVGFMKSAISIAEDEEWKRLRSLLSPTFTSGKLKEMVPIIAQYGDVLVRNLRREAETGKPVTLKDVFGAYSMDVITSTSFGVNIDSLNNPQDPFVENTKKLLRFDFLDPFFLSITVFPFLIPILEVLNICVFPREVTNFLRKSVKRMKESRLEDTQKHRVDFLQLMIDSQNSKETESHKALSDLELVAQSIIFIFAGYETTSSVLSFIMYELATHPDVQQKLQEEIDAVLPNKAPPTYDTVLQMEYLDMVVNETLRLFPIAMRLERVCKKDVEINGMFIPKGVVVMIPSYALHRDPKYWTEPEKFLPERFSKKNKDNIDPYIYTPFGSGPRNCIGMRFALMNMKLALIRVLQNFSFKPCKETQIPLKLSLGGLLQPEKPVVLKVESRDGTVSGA
T2 sequence (P11712 whole entry): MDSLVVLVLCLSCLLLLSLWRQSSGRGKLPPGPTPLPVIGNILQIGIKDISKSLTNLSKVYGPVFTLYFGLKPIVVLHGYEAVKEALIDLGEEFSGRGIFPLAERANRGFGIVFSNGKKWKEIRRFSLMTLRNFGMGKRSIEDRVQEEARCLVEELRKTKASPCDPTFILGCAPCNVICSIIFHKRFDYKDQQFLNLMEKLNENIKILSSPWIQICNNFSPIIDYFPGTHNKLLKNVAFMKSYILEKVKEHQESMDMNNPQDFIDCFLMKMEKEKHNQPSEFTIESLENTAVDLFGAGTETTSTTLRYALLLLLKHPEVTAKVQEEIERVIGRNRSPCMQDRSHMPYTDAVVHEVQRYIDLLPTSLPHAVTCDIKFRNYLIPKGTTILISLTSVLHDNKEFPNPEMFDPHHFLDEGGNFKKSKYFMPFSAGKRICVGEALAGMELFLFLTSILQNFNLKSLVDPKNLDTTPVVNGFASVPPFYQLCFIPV

Take `CC(C)=CCc1cc([C@@H]2CC(=O)c3ccc(O)c(CC=C(C)C)c3O2)cc(CC=C(C)C)c1O` [SPN, (‒)-Sophoranone]: the IC50 (commonly the concentration needed to halve the response being measured) on CYP2C8 is 13.6 ± 3.15 µM; at CYP2C9, 0.966 ± 0.149 µM; on CYP2E1 (human liver microsomes 0.1 mg/mL, cocktail assay, chlorzoxazone probe, n = 3, read-out: IC50 Values, CYP2E1), more than 50 µM; against CYP3A4, 31.5 ± 4.79 µM. The “residual enzyme activity, CYP2E1” value on CYP2E1 (at the highest tested concentration (50 μM)) was “greater than 80%”. Besides, the fraction unbound at 4 h, 10 µM in series [1] (10 μM, 37 °C, 4 h, n = 3, read-out: free fraction in rat plasma) worked out at 0.00038 ± 0.000102. Further, in series [1] (50 μM, 37 °C, 4 h, n = 3, read-out: free fraction in rat plasma), the fraction unbound at 4 h, 50 µM was found to be 0.000531 ± 0.000149. Also, in series [1] (10 and 50 μM, read-out: plasma protein binding, rat), the fraction unbound at 4 h is less than 0.001.
